Read-outs that look alike come from different tables or passages of the source.
Experiments:
Assay type in all cases: biochemical
[1] = target: T1, Itk (Homo sapiens, UniProt Q08881); test: Kinase inhibition assay (33P transfer), Itk; settings: read-out: Itk-1
T1 construct: Kinases are expressed as either kinase domains or full length constructs; made in house
T1 sequence (Q08881 1-620): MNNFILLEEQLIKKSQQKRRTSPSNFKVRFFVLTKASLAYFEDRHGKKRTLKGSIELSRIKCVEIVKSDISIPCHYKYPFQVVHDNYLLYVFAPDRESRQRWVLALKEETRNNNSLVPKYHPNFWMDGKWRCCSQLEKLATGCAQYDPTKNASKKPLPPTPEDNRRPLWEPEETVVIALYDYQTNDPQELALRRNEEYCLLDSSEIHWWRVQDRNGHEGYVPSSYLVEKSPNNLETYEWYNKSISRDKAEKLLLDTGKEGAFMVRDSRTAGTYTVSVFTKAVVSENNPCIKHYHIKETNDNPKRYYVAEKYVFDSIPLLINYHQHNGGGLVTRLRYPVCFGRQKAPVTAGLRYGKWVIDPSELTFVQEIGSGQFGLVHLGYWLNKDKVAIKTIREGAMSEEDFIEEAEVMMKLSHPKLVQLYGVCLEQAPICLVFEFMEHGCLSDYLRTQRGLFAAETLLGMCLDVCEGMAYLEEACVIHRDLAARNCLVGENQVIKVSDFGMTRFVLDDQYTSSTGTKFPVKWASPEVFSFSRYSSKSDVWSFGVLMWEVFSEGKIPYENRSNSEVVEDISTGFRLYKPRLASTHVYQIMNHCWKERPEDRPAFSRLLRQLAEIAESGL
How it was run: (§1)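 Radiometric format: recombinant tagged kinase (catalytic domain or whole protein, sometimes combined with regulatory polypeptides) phosphorylates immobilised poly(Glu,Tyr) 4:1 or poly(Arg,Ser) 3:1 using [33P]ATP. Wells are washed in 0.5% phosphoric acid, then counted. IC50 is taken where substrate labelling falls by half.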

[2] = target: T2, Lck (Homo sapiens, UniProt P06239); test: Kinase inhibition assay (33P transfer), Lck; settings: read-out: Lck-1
T2 construct: Kinases are expressed as either kinase domains or full length constructs; made in house
T2 sequence (P06239 whole entry, species assumed, the tested form may be a part): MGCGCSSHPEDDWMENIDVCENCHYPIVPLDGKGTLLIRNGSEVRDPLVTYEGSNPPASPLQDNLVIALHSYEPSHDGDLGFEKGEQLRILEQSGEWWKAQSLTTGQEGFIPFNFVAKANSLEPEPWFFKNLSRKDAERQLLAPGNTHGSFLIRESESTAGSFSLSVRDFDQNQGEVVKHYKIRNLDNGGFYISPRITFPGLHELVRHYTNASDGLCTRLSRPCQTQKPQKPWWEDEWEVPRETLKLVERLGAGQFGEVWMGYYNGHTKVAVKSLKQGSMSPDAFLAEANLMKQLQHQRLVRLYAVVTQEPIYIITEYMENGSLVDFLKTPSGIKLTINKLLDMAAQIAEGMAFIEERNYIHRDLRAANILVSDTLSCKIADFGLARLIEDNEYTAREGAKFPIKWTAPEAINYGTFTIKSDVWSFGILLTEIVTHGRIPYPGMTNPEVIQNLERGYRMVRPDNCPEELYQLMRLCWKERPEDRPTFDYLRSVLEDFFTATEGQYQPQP
How it was run: (§2)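 Each kinase, expressed as a GST- or polyHis-tagged domain or full-length protein, phosphorylated plate-attached poly(Glu,Tyr) 4:1 or poly(Arg,Ser) 3:1 using 33P-ATP. Bound radioactivity was measured by scintillation after a 0.5% phosphoric acid wash.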

[3] = target: T3, Kdr (Homo sapiens, UniProt P35968); test: Kinase inhibition assay (33P transfer), Kdr; settings: read-out: KDR-1
T3 construct: Kinases are expressed as either kinase domains or full length constructs; made in house
T3 sequence (P35968 20-1356, species assumed): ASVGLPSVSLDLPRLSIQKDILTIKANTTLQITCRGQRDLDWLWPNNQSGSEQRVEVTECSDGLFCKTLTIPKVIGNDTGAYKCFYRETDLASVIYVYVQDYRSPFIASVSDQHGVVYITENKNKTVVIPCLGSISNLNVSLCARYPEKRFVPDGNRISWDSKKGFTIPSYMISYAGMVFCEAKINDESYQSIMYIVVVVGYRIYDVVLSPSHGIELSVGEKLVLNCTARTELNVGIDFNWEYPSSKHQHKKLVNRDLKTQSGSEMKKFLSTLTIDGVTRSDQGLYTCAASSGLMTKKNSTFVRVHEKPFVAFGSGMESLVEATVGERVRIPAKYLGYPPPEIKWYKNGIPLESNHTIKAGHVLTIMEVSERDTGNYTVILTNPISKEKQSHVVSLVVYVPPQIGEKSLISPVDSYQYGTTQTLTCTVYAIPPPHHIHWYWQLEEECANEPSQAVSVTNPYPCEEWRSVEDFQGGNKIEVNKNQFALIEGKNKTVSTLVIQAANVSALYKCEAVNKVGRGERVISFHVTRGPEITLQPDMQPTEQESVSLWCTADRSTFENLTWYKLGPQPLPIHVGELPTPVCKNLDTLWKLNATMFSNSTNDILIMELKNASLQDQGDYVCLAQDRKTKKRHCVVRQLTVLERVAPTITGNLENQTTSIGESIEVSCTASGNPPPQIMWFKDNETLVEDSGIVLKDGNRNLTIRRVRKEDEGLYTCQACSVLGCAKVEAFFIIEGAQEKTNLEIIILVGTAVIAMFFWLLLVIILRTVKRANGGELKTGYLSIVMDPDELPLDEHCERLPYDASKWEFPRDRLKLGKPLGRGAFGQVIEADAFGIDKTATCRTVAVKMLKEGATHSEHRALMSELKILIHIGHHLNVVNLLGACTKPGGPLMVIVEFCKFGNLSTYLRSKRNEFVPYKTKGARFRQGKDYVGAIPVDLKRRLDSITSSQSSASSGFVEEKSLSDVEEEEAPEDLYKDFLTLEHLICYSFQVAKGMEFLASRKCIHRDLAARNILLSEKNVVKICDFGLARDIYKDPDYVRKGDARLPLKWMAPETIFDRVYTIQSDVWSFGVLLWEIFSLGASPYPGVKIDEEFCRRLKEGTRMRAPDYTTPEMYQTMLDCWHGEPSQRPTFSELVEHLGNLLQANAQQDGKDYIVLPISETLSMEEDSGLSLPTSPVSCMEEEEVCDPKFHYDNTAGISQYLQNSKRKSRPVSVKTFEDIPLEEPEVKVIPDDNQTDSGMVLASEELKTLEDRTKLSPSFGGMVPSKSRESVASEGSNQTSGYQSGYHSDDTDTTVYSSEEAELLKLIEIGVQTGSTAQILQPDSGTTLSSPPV
How it was run: as §2

[4] = target: T4, EGFR (Homo sapiens, UniProt P00533); test: Kinase inhibition assay (33P transfer), EGFR; settings: Table 2, kinase inhibition class; read-out: EGFR-1
T4 construct: Kinases are expressed as either kinase domains or full length constructs; made in house
T4 sequence (P00533 25-1210, species assumed): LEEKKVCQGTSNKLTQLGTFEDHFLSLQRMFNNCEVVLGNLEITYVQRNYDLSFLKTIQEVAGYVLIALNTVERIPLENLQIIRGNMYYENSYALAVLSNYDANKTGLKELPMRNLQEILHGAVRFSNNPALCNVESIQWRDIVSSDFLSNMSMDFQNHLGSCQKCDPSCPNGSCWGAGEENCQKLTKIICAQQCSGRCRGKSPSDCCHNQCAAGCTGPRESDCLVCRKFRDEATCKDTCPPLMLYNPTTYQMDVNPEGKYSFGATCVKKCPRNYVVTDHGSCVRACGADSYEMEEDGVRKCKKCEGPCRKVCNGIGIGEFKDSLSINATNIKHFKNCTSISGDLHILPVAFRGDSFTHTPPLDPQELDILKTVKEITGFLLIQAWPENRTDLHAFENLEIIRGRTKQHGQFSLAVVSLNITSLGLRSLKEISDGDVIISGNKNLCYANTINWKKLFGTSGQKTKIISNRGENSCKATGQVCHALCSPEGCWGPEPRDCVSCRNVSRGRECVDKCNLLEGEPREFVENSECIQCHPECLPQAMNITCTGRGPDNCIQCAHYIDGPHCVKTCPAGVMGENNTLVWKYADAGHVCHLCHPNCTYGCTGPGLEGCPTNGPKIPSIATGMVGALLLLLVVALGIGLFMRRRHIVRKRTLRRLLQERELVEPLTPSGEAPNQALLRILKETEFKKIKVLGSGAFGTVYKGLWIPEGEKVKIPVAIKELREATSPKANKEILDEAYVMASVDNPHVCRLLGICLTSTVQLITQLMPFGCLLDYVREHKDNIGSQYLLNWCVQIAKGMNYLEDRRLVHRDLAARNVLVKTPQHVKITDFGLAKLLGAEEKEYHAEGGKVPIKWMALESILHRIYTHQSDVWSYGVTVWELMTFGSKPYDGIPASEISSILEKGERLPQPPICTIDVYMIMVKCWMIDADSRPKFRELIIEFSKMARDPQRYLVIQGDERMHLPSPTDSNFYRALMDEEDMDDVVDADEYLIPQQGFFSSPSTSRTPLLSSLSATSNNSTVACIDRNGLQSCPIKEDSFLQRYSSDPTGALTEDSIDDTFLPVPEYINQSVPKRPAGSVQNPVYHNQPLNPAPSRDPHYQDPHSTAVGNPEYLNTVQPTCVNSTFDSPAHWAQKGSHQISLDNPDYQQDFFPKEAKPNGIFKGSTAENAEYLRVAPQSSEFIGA
How it was run: as §1

[5] = target: T5, Zap-70 (Homo sapiens, UniProt P43403); test: Kinase inhibition assay (33P transfer), Zap-70; settings: read-out: Zap-1
T5 construct: Kinases are expressed as either kinase domains or full length constructs; made in house
T5 sequence (P43403 1-619): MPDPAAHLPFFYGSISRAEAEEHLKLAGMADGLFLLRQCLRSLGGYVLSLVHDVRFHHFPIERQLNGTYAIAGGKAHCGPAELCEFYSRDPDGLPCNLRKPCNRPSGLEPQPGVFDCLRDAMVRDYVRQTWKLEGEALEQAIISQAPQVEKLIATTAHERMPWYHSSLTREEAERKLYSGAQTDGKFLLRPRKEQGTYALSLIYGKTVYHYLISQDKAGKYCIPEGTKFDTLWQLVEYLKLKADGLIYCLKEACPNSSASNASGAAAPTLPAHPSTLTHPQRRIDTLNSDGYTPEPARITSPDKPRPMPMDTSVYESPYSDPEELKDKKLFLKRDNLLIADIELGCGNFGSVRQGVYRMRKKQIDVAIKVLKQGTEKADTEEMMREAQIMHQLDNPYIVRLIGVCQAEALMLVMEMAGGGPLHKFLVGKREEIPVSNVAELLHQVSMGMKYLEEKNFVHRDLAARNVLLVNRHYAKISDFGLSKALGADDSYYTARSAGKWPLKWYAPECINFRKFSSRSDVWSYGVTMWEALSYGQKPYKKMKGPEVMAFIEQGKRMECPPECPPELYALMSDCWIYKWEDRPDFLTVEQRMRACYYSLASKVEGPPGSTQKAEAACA
How it was run: as §2

[6] = target: T6, AKT (Homo sapiens, UniProt Q9Y243); test: Kinase inhibition assay (33P transfer), AKT; settings: Table 2, kinase inhibition class; read-out: AKT3-1
T6 construct: Kinases are expressed as either kinase domains or full length constructs; made in house
T6 sequence (Q9Y243 whole entry, the tested form may be a part): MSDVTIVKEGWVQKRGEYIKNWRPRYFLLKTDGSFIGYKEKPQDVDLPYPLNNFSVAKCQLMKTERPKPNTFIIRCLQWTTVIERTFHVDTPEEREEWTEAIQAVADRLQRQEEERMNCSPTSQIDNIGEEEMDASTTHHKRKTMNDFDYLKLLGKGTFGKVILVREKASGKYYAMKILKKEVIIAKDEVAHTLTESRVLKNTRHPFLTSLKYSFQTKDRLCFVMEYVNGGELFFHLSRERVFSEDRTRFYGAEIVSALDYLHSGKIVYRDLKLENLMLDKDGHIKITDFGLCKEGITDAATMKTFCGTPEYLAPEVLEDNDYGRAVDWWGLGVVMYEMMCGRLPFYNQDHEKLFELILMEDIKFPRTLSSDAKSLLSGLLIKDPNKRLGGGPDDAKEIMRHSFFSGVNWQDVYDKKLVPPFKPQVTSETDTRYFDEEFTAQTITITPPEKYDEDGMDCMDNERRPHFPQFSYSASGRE
How it was run: as §2

[7] = target: T7, c-Met (Homo sapiens, UniProt P08581); test: Kinase inhibition assay (33P transfer), c-Met; settings: Table 2, kinase inhibition class; read-out: Met-1
T7 construct: Kinases are expressed as either kinase domains or full length constructs; made in house
How it was run: as §1

[8] = target: T8, Tek (Homo sapiens, UniProt Q02763); test: Kinase inhibition assay (33P transfer), Tek; settings: read-out: Tek-1
T8 construct: Kinases are expressed as either kinase domains or full length constructs; made in house
T8 sequence (Q02763 23-1124, species assumed): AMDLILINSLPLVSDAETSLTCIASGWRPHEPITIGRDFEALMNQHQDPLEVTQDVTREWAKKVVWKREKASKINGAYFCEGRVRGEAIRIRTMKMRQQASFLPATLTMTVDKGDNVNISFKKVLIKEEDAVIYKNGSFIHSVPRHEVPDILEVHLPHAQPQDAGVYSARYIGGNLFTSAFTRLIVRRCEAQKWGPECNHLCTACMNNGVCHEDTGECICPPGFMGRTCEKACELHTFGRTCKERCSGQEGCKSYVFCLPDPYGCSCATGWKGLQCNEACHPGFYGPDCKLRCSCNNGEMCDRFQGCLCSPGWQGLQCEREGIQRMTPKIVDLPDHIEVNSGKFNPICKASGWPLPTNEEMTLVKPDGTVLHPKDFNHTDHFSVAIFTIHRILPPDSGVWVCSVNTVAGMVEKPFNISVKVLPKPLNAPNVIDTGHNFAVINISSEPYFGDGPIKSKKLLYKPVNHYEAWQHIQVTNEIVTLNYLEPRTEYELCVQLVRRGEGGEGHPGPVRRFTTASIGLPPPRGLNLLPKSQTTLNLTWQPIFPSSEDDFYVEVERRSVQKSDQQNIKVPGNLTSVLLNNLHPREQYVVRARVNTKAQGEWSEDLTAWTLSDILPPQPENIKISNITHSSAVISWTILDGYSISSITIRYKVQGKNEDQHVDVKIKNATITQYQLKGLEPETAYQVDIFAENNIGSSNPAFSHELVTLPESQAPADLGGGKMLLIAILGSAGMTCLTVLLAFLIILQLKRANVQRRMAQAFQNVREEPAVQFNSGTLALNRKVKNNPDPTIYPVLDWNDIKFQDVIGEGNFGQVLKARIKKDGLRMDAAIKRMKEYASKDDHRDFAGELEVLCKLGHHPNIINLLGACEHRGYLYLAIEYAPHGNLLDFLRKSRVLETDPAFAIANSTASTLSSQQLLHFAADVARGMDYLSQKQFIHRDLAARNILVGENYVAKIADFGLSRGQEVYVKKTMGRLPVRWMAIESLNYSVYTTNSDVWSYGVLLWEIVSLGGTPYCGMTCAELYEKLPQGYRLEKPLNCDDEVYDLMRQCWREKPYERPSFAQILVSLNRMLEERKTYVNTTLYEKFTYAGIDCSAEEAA
Description: The inhibitor compounds described herein are screened in the following manner. Kinases suitable for use in the following protocol to determine kinase activity of the compounds described herein include, -but are not limited to: Lck, Lyn, Src, Fyn, Syk, Zap-70, Itk, Tec, Btk, EGFR, ErbB2, Kdr, Flt-1, Flt-3, Tek, c-Met, InsR, and AKT.
Kinases are expressed as either kinase domains or full length constructs fused to glutathione S-transferase (GST) or polyHistidine tagged fusion proteins in either E. colior Baculovirus-High Five expression systems. They are purified to near homogeneity by affinity chromatography essentially as previously described (Lehr et al., 1996; Gish et al., 1995). In some instances, kinases are co-expressed or mixed with purified or partially purified regulatory polypeptides prior to measurement of activity.
Kinase activity and inhibition are measured essentially by established protocols (Braunwalder et al., 1996). Briefly, The transfer of ^33PO4 from ATP to the synthetic substrates poly(Glu, Tyr) 4:1 or poly(Arg, Ser) 3:1 attached to the bioactive surface of microtiter plates serves as the basis to evaluate enzyme activity. After an incubation period, the amount of phosphate transferred is measured by first washing the plate with 0.5% phosphoric acid, adding liquid scintillant, and then counting in a liquid scintillation detector. The IC50 is determined by the concentration of compound that causes a 50% reduction in the amount of […] incorporated onto the substrate bound to the plate.

IC50 [1]	IC50 [2]	IC50 [3]	IC50 [4]	IC50 [5]	IC50 [6]	IC50 [7]	IC50 [8]	IC50 ([1]; Table 3)	IC50 ([2]; Table 3)	IC50 ([3]; Table 3)	IC50 ([5]; Table 3)	Structure (SMILES)
1.18 to 7.11 µM	1.18 to 7.11 µM	1.18 to 7.11 µM	1.18 to 7.11 µM	1.18 to 7.11 µM	1.18 to 7.11 µM	1.18 to 7.11 µM	1.18 to 7.11 µM					Nc1nc2ccccc2n1-c1ncnc(Nc2ccc(Cl)cc2)n1 [Compound 478]
			> 12.5 µM		> 12.5 µM	> 12.5 µM	> 12.5 µM	> 12.5 µM	> 12.5 µM	6.66 to 9.71 µM	> 12.5 µM	COc1cc(Nc2ncnc(Nc3nccs3)n2)cc(OC)c1OC [Compound 442]
8.78 to 11.3 µM	1 to 6.02 µM	< 1 µM	8.78 to 11.3 µM	> 11.3 µM	> 11.3 µM	> 11.3 µM	8.78 to 11.3 µM					COc1ccc(-c2ncnc(Nc3cc(OC)c(OC)c(OC)c3)n2)cc1OC [Compound 230]
> 10.2 µM	7.95 to 10.2 µM	> 10.2 µM	> 10.2 µM	> 10.2 µM	> 10.2 µM	> 10.2 µM	5.45 to 7.95 µM					O=c1[nH]c2ccccc2n1-c1ncnc(Nc2cc(C(F)(F)F)cc(C(F)(F)F)c2)n1 [Compound 506]
> 11.4 µM	> 11.4 µM	> 11.4 µM	> 11.4 µM	> 11.4 µM	> 11.4 µM	> 11.4 µM	> 11.4 µM					COc1cc(Nc2ncnc(Nc3ncnc4[nH]cnc34)n2)cc(OC)c1OC [Compound 696]
			> 8.5 µM		6.61 to 8.5 µM	> 8.5 µM	> 8.5 µM	> 8.5 µM	6.61 to 8.5 µM	0.755 to 4.53 µM	> 8.5 µM	COc1cc(Nc2nc3ccccc3n2-c2ncnc(Nc3cc(OC)c(OC)c(OC)c3)n2)cc(OC)c1 [Compound 399]
> 10.9 µM	8.49 to 10.9 µM	< 0.97 µM	> 10.9 µM	> 10.9 µM	> 10.9 µM	> 10.9 µM	> 10.9 µM					COc1cc(Nc2ncnc(-c3ccc(NCCCO)nc3)n2)cc(OC)c1OC [Compound 497]
> 12.3 µM	> 12.3 µM	9.55 to 12.3 µM	> 12.3 µM	> 12.3 µM	> 12.3 µM	> 12.3 µM	1.09 to 6.55 µM					COc1cc(OC)nc(Nc2ncnc(-n3c(=O)[nH]c4ccccc43)n2)n1 [Compound 491]
> 9.04 µM	0.804 to 4.82 µM	< 0.804 µM	> 9.04 µM	> 9.04 µM	> 9.04 µM	7.03 to 9.04 µM	> 9.04 µM					COc1cc(Nc2ncnc(-n3c(N[C@H](C)c4ccccc4)nc4ccccc43)n2)cc(OC)c1OC [Compound 1034]
4.81 to 7.02 µM	> 9.03 µM	< 0.802 µM	> 9.03 µM	> 9.03 µM	> 9.03 µM	> 9.03 µM	> 9.03 µM					COc1cc(Nc2ncnc(-n3c(NCCc4cccnc4)nc4ccccc43)n2)cc(OC)c1OC [Compound 947]
> 10.8 µM	5.75 to 8.38 µM	0.958 to 5.75 µM	0.958 to 5.75 µM	0.958 to 5.75 µM	> 10.8 µM	> 10.8 µM	0.958 to 5.75 µM					O=c1[nH]c2ccccc2n1-c1ncnc(Nc2ccc(Br)c(Cl)c2)n1 [Compound 483]
> 12.4 µM	6.59 to 9.61 µM	< 1.1 µM	6.59 to 9.61 µM	> 12.4 µM	> 12.4 µM	> 12.4 µM	> 12.4 µM					COc1ccc(Nc2ncnc(-n3c(=O)[nH]c4ccccc43)n2)cc1OC [Compound 494]
> 9.91 µM	5.29 to 7.71 µM	7.71 to 9.91 µM	0.881 to 5.29 µM	> 9.91 µM	> 9.91 µM	0.881 to 5.29 µM	> 9.91 µM					COc1cc(Nc2ncnc(Nc3cc(-c4cccc(Cl)c4)n[nH]3)n2)cc(OC)c1OC [Compound 495]

From patent publication US7074789B2, “Kinase inhibitors” (Amgen Inc., priority 1999, dated 2006)
